# Laboratory results: PMC8041433 (Environmental Health Perspectives, 2021)
# Values joined by “and” are separate entries in the source; they are usually repeats but may differ in a detail not shown here. Equal values may be shown once. Read-outs that look alike come from different tables or passages of the source.
# Assays:
# [1] = molecular target: AChE in SH-SY5Y spheroids (Homo sapiens, UniProt P22303); experiment: cell-based; conditions: potency (IC50)
# [2] = molecular target: AChE in neural stem cell spheroids (Homo sapiens, UniProt P22303); experiment: cell-based; conditions: for IC50: potency (IC50)
# Chain of AChE in neural stem cell spheroids (P22303 32-614): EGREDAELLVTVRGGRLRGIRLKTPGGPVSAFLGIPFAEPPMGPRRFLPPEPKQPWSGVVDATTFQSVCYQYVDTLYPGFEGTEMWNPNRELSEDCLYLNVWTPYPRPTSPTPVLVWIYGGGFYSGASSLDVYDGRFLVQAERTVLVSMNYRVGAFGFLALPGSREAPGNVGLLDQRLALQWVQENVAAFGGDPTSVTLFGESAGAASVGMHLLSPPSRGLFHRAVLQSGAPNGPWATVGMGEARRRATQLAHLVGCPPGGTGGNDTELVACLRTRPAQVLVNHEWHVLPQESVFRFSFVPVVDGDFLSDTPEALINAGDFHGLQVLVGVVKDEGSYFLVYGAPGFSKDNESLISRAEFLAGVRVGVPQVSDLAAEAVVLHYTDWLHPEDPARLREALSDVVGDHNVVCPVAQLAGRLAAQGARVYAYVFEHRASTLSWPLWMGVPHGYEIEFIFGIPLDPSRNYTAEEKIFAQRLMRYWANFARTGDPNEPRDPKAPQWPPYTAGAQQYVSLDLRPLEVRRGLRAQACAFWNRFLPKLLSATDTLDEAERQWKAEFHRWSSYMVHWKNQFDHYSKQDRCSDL
# AChE in SH-SY5Y cells = AChE in SH-SY5Y cells (Homo sapiens, UniProt P22303); experiment: cell-based
# Chain of AChE in SH-SY5Y cells (P22303 32-614): as above
# [3] = molecular target: AChE in neural stem cells (Homo sapiens, UniProt P22303); experiment: cell-based
# Chain of AChE in neural stem cells (P22303 32-614): as above
# recombinant human AChE [4] = molecular target: T1, recombinant human AChE (Homo sapiens, UniProt P22303); experiment: biochemical
# T1 sequence (P22303 32-614): as above
# recombinant human AChE [5] = molecular target: T1, recombinant human AChE
# recombinant human AChE [6] = molecular target: T1, recombinant human AChE; experiment: biochemical; remark: listed apart in the source
# recombinant human AChE [7] = molecular target: T1, recombinant human AChE; experiment: biochemical; assay type: biochemical; conditions: for AC50: AC50 (uM)
# recombinant human AChE [8] = molecular target: T1, recombinant human AChE; experiment: biochemical; remark: listed apart in the source
# [9] = Neural stem cell spheroid (24 h)
# [10] = Neural stem cell spheroid (48 h)
# [11] = potency (IC50), SH-SY5Y cells monolayer
# [12] = potency (IC50), Enzyme with microsomes
# Wherever IR or R is given: key: Reversible (R); Irreversible (IR); ND, not detected in enzyme-based AChE inhibition assay from current study.
# Chain of AChE in SH-SY5Y spheroids (P22303 32-614): as above
Structure (SMILES),IC50 ([1]; SH-SY5Y spheroids (24 h)) [µM],IC50 ([1]; SH-SY5Y spheroids (48 h)) [µM],"IC50 [2, 9] [µM]","IC50 [2, 10] [µM]",CC-v2 (curve classes) (AChE in SH-SY5Y cells),IC50 (AChE in SH-SY5Y cells; IC50 (uM)),IC50 (AChE in SH-SY5Y cells; [11]) [µM],IC50 [3] [µM],CC-v2 (curve classes) (recombinant human AChE [4]),"IC50 (recombinant human AChE [4]; potency (IC50), Enzyme) [µM]",CC-v2 (curve classes) (recombinant human AChE [5]),IC50 (recombinant human AChE [6]) [µM],IR or R (recombinant human AChE [7]),AC50 (recombinant human AChE [7]; activity_5),AC50 (recombinant human AChE [7]; activity_10),AC50 (recombinant human AChE [7]; activity_60),IC50 (recombinant human AChE [8]; [12]) [µM],Efficacy (recombinant human AChE [4]),IC50 (recombinant human AChE [4]; IC50 (uM)) [µM],Efficacy (recombinant human AChE [5]),other results
CC/N=c1\cc2oc3cc(NCC)c(C)cc3c(-c3ccccc3C(=O)OCC)c-2cc1C [Rhodamine 6G],15.8,9.25,29.7,40.3,-1.1,8.94 µM and 6.31 µM and 7.1 µM and 7.07 µM and 7.96 µM and 8.91 µM,12.4,30.5,-1.1,22.8,-2.2 and -2.1,41.2 ± 2.79,R,39.5 µM and 35.2 µM and 28 µM,39.5 µM and 49.8 µM and 35.2 µM,25 µM and 35.2 µM,41.3,,,,
CCN1CCC2(CC1)COc1cc3c(cc12)N(C(=O)c1ccc(-c2ccc(-c4nnc(C)o4)cc2C)cc1)CC3.Cl [SB236057A],27.8 ± 11.7,25.9 ± 2.98,,4.03,-2.1,29.3 µM and 23.2 µM,33.8 ± 2.29,42.6 ± 2.88,-2.1,38.3 ± 6.89,4,67.8 ± 8.64,R,72.8 µM and 64.9 µM and 45.9 µM,51.5 µM and 91.6 µM,64.9 µM and 51.5 µM and 72.8 µM,66 ± 15.1,-86.107,32.8,0,"potency (IC50), Neural stem cell spheroid (24 h) [2]: Inactive"
"Cc1nc2n(c(=O)c1CCN1CCC(C(=O)c3ccc(F)cc3)CC1)CCS2 [Setoperone, reference compound]",2.66 ± 1.88,13.7 ± 1.58,,,-2.1,13.8 µM and 12.3 µM and 15.5 µM,16 ± 1.08,8.35 ± 1.14,-2.2,14.2 ± 0.96,4,20.1 ± 1.36,R,4.32 µM and 6.11 µM and 7.69 µM,4.85 µM and 7.69 µM and 10.9 µM,6.11 µM and 6.85 µM,18.6 ± 1.21,-57.619,30.9,0,"potency (IC50), Neural stem cell spheroid (24 h) [2]: Inactive"
"CCOC(=O)c1ccc(NC(=O)CN2CCCCC2)cc1 [Sulcaine, reference compound]",12.9,20.9,15.6,13.7,-2.1,30.9 µM and 27.5 µM and 15.5 µM,15.3,19.6,-2.2,20.1,4,23.4 ± 1.53,R,24.3 µM and 27.3 µM,24.3 µM and 27.3 µM,21.7 µM and 27.3 µM,23.4,-40.558,30.9,0,
CCOP(=S)(OCC)OP(=S)(OCC)OCC [Sulfotepp],15.3 ± 7.82,4.12 ± 0.28,0.06 ± 0.01,0.1 ± 0.02,-1.1,5.02 µM and 8.18 µM and 2.52 µM and 5.16 µM and 2.24 µM and 2.59 µM,0.96 ± 0.13,1.25 ± 0.14,-2.1,9.97 ± 1.14,-1.1,44.4,,,,55.9 µM and 70.3 µM,7.89,,,,
CCOP(=S)(Oc1cnc(C(C)(C)C)nc1)OC(C)C (centres unmarked) [Tebupirimfos],28.2,24.2,2.08,3.7,-2.1,39.9 µM and 35.6 µM,20.1,9.97,-2.1,46.2,-1.1,42.8 ± 2.79,,,,,4.29,-96.664,,-95.03,IC50 (recombinant human AChE [4]; read-out: IC50): 63.3 µM; AC50 (recombinant human AChE [7]): 70.3 µM and 55.9 µM and 49.8 µM; IC50 (recombinant human AChE [8]; IC50 (uM)): 10 µM
CS/C(C)=N\OC(=O)N(C)SN(C)C(=O)O/N=C(\C)SC [Thiodicarb],1.58 ± 0.57,2.62 ± 0.47,7.63 ± 1.05,7.8 ± 2.18,-1.1,1.42 µM and 1.26 µM and 1.12 µM,2.81 ± 0.32,5.43 ± 0.92,-1.1,7.03,-2.1,3.97 ± 0.46,,,,,5.48 ± 1.36,-104.676,,-115.189,AC50 (recombinant human AChE [7]): 4.44 µM and 3.95 µM (2×) and 3.14 µM and 6.27 µM and 5.59 µM and 1.57 µM and 1.98 µM
CNC(=O)ON=C(CSC)C(C)(C)C [Thiofanox],6.89 ± 6.18,3.46 ± 0.86,2.83 ± 0.59,3.64,-1.1,1.59 µM and 1.78 µM,3.04 ± 0.41,4.83 ± 0.82,-1.1,1.91 ± 0.26,-1.1,3.18 ± 0.59,,,,,2.59 ± 0.17,-92.082,,-91.728,AC50 (recombinant human AChE [7]): 2.8 µM and 4.44 µM and 4.98 µM and 3.95 µM and 2.22 µM and 1.4 µM and 1.98 µM
